Test results taken from patent publication US6407109B1, “Pyrrolyl tetrahydroquinoxalin diones, their production and use in the treatment of diseases” (Abbott Laboratories, priority 1995, dated 2002).

test system: AMPA receptor; experiment: Binding of 3H-AMPA to rat cerebral membrane material; conditions: compared with 1-(ethoxycarbonylmethyl)-7-(3-formyl-1-pyrrolyl)-6-nitroquinoxaline-2,3(1H,4H)-dione
Method: The pharmacological activity of the compounds I was investigated on isolated membrane material from rat cerebra. For this purpose, the membrane material was treated in the presence of the compounds according to the invention with the radiolabeled substance ^3H-2-amino-3-hydroxy-5-methyl-4-isoxazolepropionic acid (^3H-AMPA), [^3H]-glycine or [^3H]-kainate which bind to specific receptors (AMPA, NMDA or kainate receptors). The radioactivity of the treated membranes was then measured by scintillation counting. It was possible to determine from the bound radioactivity the amounts of bound ^3H-AMPA, [^3H]-glycine or [^3H]-kainate, or in each case the displaced amounts of these radiolabeled substances. […]
To prepare the membrane material, freshly removed rat cerebra were homogenized together with 15 times the volume of a buffer solution A composed of 30 mM tris(hydroxymethyl)methylamine hydrochloride (TRIS-HCl) and 0.5 mM ethylenediaminetetraacetic acid (EDTA), pH 7.4, using an Ultra-Turrax^R. The suspension was centrifuged at 48000 g for 20 min. […] After measurement of the radioactivity of the bound ^3H-AMPA in the membrane material by scintillation counting, the KI was determined by regression analysis of the displacement plots.

Row | SMILES | activity in 3H-AMPA binding relative to the closely related aldehyde (Example 80 in EP 572 852)
1 | CCOC(=O)Cn1c(=O)c(=O)[nH]c2cc([N+](=O)[O-])c(-n3ccc(C(=O)O)c3)cc21 [Example 2, 7-(3-Carboxy-1-pyrrolyl)-1-(ethoxycarbonylmethyl)-6-nitroquin-oxaline-2,3(1H,4H)-dione] | distinctly more active

same assay, conditions: isolated membrane material from rat cerebra, 3H-AMPA, incubated on ice for 60 min; read-out: kI (dissociation constant, displacement of 3H-AMPA)

Row | SMILES | Ki
2 | CCOC(=O)Cn1c(=O)c(=O)[nH]c2cc([N+](=O)[O-])c(-n3ccc(C(=O)O)c3)cc21 [Example 2, 7-(3-Carboxy-1-pyrrolyl)-1-(ethoxycarbonylmethyl)-6-nitroquin-oxaline-2,3(1H,4H)-dione] | < 10 µM

test system: not given; experiment: not given; conditions: not given

Row | SMILES | melting point
3 | CCOC(=O)Cn1c(=O)c(=O)[nH]c2cc([N+](=O)[O-])c(-n3ccc(C(=O)NCc4ccc([N+](=O)[O-])cc4)c3)cc21 | > 300 °C
4 | CCOC(=O)Cn1c(=O)c(=O)[nH]c2ccc3ccc(-n4ccc(C(=O)O)c4)cc3c21 [Example 3, 9-(3-Carboxy-1-pyrrolyl)-1-(ethoxycarbonylmethyl)benzo[f]-quinoxaline-2,3(1H,4H)-dione] | 292 to 295 °C
5 | CCOC(=O)Cn1c(=O)c(=O)[nH]c2cc([N+](=O)[O-])c(-n3ccc(C(=O)NCc4ccccc4)c3)cc21 [Example 8, 7-(3-Benzylcarbamoyl-1-pyrrolyl)-1-ethoxycarbonylmethyl-6-nitro-quinoxaline-2,3(1H,4H)-dione] | 223 °C (dec.)
6 | CCOC(=O)Cn1c(=O)c(=O)[nH]c2cc([N+](=O)[O-])c(-n3ccc(C(=O)NCc4ccncc4)c3)cc21 [Example 11, 1-Ethoxycarbonylmethyl-6-nitro-7-(3-(4-pyridinylmethylcarbamoyl)-1-pyrrolyl)quinoxaline-2,3(1H,4H)-dione] | > 300 °C
7 | O=C(O)Cn1c(=O)c(=O)[nH]c2ccc3c(-n4ccc(C(=O)O)c4)cccc3c21 [Example 15, 1-Carboxymethyl-7-(3-carboxy-1-pyrrolyl)benzo[f]quinoxaline-2,3(1H, 4H)-dione] | > 300 °C
8 | O=C(O)Cn1c(=O)c(=O)[nH]c2cc([N+](=O)[O-])c(-n3ccc(C(=O)NCCCc4ccccc4)c3)cc21 [Example 21, 1-Carboxymethyl-6-nitro-7-(3-(3-phenylpropylcarbamoyl)-1-pyrrolyl)quinoxaline-2,3(1H,4H)-dione] | 224 to 227 °C (dec.)

More lines, now with the values ahead:

Row | melting point | SMILES
9 | > 210 °C (dec.) | O=C(O)Cn1c(=O)c(=O)[nH]c2cc([N+](=O)[O-])c(-n3ccc(C(=O)NCc4ccc([N+](=O)[O-])cc4)c3)cc21
10 | > 250 °C (dec.) | O=C(O)Cn1c(=O)c(=O)[nH]c2cc([N+](=O)[O-])c(-n3ccc(C(=O)N4CCN(CCc5ccccc5)CC4)c3)cc21 [Example 20, 1-Carboxymethyl-6-nitro-7-(3-(4-(2-phenylethyl)-1-piperazinyl-carbonyl)-1-pyrrolyl)quinoxaline-2,3(1H, 4H)-dione]
11 | > 300 °C | O=C(O)Cn1c(=O)c(=O)[nH]c2cc([N+](=O)[O-])c(-n3ccc(C(=O)NCc4ccncc4)c3)cc21 [Example 22, 1-Carboxymethyl-6-nitro-7-(3-(4-pyridinylmethylcarbamoyl)-1-pyrrolyl)quinoxaline-2,3(1H,4H)-dione]
